Data set [1] relates to 16-hour salivary biofilm on pellicle coated hydroxyapatite pegs. In words: Prevention assay: prevention of bacterial attachment to pellicle coated hydroxyapatite pegs, ATP bioluminescence. The class given is cell-based. Conditions: for ability to prevent bacterial attachment / preventing bacterial attachment the best: simple solution solvent base formulas (Table 11); for prevention of bacterial attachment in alcohol free full formulations: Table 15 formulations, water as the only solvent; for prevention of bacterial attachment in alcohol-free full formulations: Table 17 formulations, water and propylene glycol as solvents. Here is the method: The formulations in Examples 2-4, 6, 8 and 9 were prepared and test for prevention of bacterial attachment using the prevention assay. In this assay hydroxyapatite-coated polystyrene peg plate (96 pegs, N=8 per group) was exposed to saliva for one minute to form a pellicle at a temperature of 35 C. Then, for each formulation, eight pegs (N=8) were pre-treated for ten minutes with the formulation using an orbital shaker set to 500 RPM at room temperature. As a negative control, eight pegs (N=8) were pre-treated for ten minutes with sterile water. Next, a 16-hour salivary biofilm was grown on these polystyrene peg plates at a temperature of 35 C.
After all treatments were complete, the biofilm from each peg was neutralized and rinsed. The biofilm was harvested via sonication using a Q-Sonica Q700 Ultrasonic Liquid Processor with 431MP4-00 microplate horn Damper and 0.5:1 reverse gain booster (Q-Sonica, Newtown, Conn.). Using a Celsis Rapid Detection RapiScreen kit (Celsis International PLC, Chicago, Ill.), the bacteria were lysed with Celsis Luminex and then the adenosine triphosphate (ATP) from the lysed bacteria was measured using the bioluminescence marker Celcis Luminate and a Centro LB 960 Microplate Luminometer supplied by Berthold Technologies (Wildbad, Germany). Data were reported in log RLU (relative light units) where decreasing log RLUs indicated fewer viable bacteria remained on the biofilm substrate. The log RLUs for the prevention assay are shown on Tables 2, 4, 6, 10, 14, and 16.

For data set [2], the system named is S. mutans biofilm. Description: S. mutans single species kill assay (in-vitro biofilm model). It is filed as cell-based. The conditions noted are these: simple solution formulas (Table 13), 30 second treatment. The protocol: The formulations listed in Example 7 were prepared and tested using an in-vitro single species S. mutans biofilm model. A 24-hour S. mutans biofilm is grown on a polystyrene peg plate (96 pegs, N=6 per test group). The pegs were subsequently treated for thirty seconds with each of formulations H and I, as well as positive and negative controls. The treatment is applied as a single thirty (30) second treatment. The positive control is a commercially available essential oil mouth rinse. The negative control is sterile water. After treatment the biofilm is neutralized and rinsed. The biofilm is harvested via sonication using a Misonix Ultrasonic Liquid Processor (Farmingdale, N.Y.). Using a Celsis Rapid Detection RapiScreen kit (Celsis International PLC, Chicago), the bacteria are lysed with Celsis Luminex and then the adenosine triphosphate (ATP) from the lysed bacteria is measured using the bioluminescence marker LB960 Microplate Luminometer supplied by Berthold (Wildbad, Germany). Data are reported in log RLU (relative light units) where decreasing log RLUs indicates fewer viable bacteria remaining on the biofilm substrate.

Data set [3] can be described thus: HPLC quantification of compound remaining after storage at 50° C. It is filed as physicochemical. The conditions noted are these: storage at 50° C. for 4 and 8 weeks (Table 13 formulas). The protocol:
Briefly, formulations containing either LAE or any of the 26 compounds and standards are diluted into a solution of 50% acetonitrile and 50% water. They are evaluated on an Agilent HPLC using a Zorbax ion exchange column. In the method, 10 uL of the sample is withdrawn and ran through the HPLC with a 40% potassium phosphate (molarity at pH 3.0) 60% acetonitrile mobile phase. […] The molecule peak is auto integrated using the Online Agilent HPLC software. Comparisons are made to the standard to identify the % of compound remaining following storage.

As to `CCCCCCCCCCCCCC(=O)NC(CCCNC(=N)N)C(=O)NCC` (centres unmarked) [Compound 20, N-(1-(ethylamino)-5-guanidino-1-oxopentan-2-yl)tetradecanamide], the “ability to prevent bacterial attachment” value in data set [1] is “have the ability to prevent bacterial attachment”.
Same read-out and setting: the entry for `CCCCCCCCCC(=O)NC(CCCNC(=N)N)C(=O)NCC` (centres unmarked) [Compound 24, N-(1-(ethylamino)-5-guanidino-1-oxopentan-2-yl)decanamide] is “have the ability to prevent bacterial attachment”.
As to `CCCCCCCCCCCC(=O)NC(CCCN)C(=O)NCC` (centres unmarked) [Compound 12, N-[4-amino-1-(ethylcarbamoyl)butyl]dodecanamide], in data set [1], the “prevention of bacterial attachment in alcohol free full formulations” value (from here on “prevention … in alcohol free full formulations”) is listed as “Prevent Bacterial Attachment”, the “prevention of bacterial attachment in alcohol-free full formulations” value (from here on “prevention … in alcohol-free full formulations”) is listed as “Prevent Bacterial Attachment”, the “ability to prevent bacterial attachment” value is reported as “have the ability to prevent bacterial attachment” and the “preventing bacterial attachment the best” value is on record as “preventing bacterial attachment the best”. Further, the “log reduction in S. mutans” value in data set [2] is given as “do not Result in More than a One Log Reduction in S. mutans”.
Regarding `CCCCCCCCNC(=O)C(CCCNC(=N)N)NC(=O)CCCCCCC` (centres unmarked) [Compound 21, N-(5-guanidino-1-(octylamino)-1-oxopentan-2-yl)octanamide], in data set [1], the “ability to prevent bacterial attachment” value is on record as “have the ability to prevent bacterial attachment” and the “preventing bacterial attachment the best” value is “preventing bacterial attachment the best”.
For `CCCCCCCCCCCC(=O)NC(CCCNC(=N)N)C(=O)NCCCCCCCCCC` (centres unmarked) [Compound 23, N-(1-(decylamino)-5-guanidino-1-oxopentan-2-yl)dodecanamide], in data set [1], the “ability to prevent bacterial attachment” value is “have the ability to prevent bacterial attachment”.
`CCCCCCCCNC(=O)C(CCCN)NC(=O)CCCCCCC` (centres unmarked) [Compound 19, N-(5-amino-1-(octylamino)-1-oxopentan-2-yl)octanamide]: in data set [1], the “ability to prevent bacterial attachment” value is “have the ability to prevent bacterial attachment” and the “preventing bacterial attachment the best” value is listed as “preventing bacterial attachment the best”.
Consider `CCCCCCCCCCCNC(=O)C(CCCNC(=N)N)NC(=O)CCCCCCCCCCC` (centres unmarked) [Compound 25, N-(5-guanidino-1-oxo-1-(undecylamino)pentan-2-yl)dodecanamide], for which the “ability to prevent bacterial attachment” value in data set [1] was “have the ability to prevent bacterial attachment”.
On to `CCCCCCCCCCCC(=O)NC(CCCNC(=N)N)C(=O)NC` (centres unmarked) [Compound 6], for which, in data set [1], the “prevention … in alcohol free full formulations” value is recorded as “Prevent Bacterial Attachment”, the “prevention … in alcohol-free full formulations” value was “Prevent Bacterial Attachment”, the “ability to prevent bacterial attachment” value is reported as “have the ability to prevent bacterial attachment” and the “preventing bacterial attachment the best” value is “preventing bacterial attachment the best”. Moreover, the “log reduction in S. mutans” value in data set [2] is given as “do not Result in More than a One Log Reduction in S. mutans”.
Regarding `CCCCCCCCCCCC(=O)NC(CCCN)C(=O)NCCCCCC` (centres unmarked) [Compound 17, N-(5-amino-1-(hexylamino)-1-oxopentan-2-yl)dodecanamide], in data set [1], the “ability to prevent bacterial attachment” value is “have the ability to prevent bacterial attachment” and the “preventing bacterial attachment the best” value is recorded as “preventing bacterial attachment the best”.
For the molecule “[amino({[4-dodecanamido-4-(methylcarbamoyl)butyl]amino})methylidene]azanium [Compound 4]”, the “ability to prevent bacterial attachment” value in data set [1] is given as “have the ability to prevent bacterial attachment”. Besides, the “log reduction in S. mutans” value in data set [2] is recorded as “do not Result in More than a One Log Reduction in S. mutans”.
Turning to `CCCCCCCCCCCNC(=O)C(CCCNC(=N)N)NC(=O)CCCCCCC` (centres unmarked) [Compound 26, N-(5-guanidino-1-oxo-1-(undecylamino)pentan-2-yl)octanamide], in data set [1], the “ability to prevent bacterial attachment” value is reported as “have the ability to prevent bacterial attachment” and the “preventing bacterial attachment the best” value is “preventing bacterial attachment the best”.
On to `CCCCCCCCCCCNC(=O)C(CCCN)NC(=O)CCCCCCC` (centres unmarked) [Compound 18, N-(5-amino-1-oxo-1-(undecylamino)pentan-2-yl)octanamide], for which, in data set [1], the “ability to prevent bacterial attachment” value is on record as “have the ability to prevent bacterial attachment” and the “preventing bacterial attachment the best” value is given as “preventing bacterial attachment the best”.
Turning to `CCCCCCCC(=O)NC(CCCNC(=N)N)C(=O)NC` (centres unmarked) [Compound 1, [amino({[4-(methylcarbamoyl)-4-octanamidobutyl]amino})methylidene]azanium], in data set [1], the “prevention … in alcohol free full formulations” value is listed as “Prevent Bacterial Attachment”, the “prevention … in alcohol-free full formulations” value is recorded as “Prevent Bacterial Attachment”, the “ability to prevent bacterial attachment” value is on record as “have the ability to prevent bacterial attachment” and the “preventing bacterial attachment the best” value is “preventing bacterial attachment the best”. The “log reduction in S. mutans” value in data set [2] was “do not Result in More than a One Log Reduction in S. mutans”.
For the molecule `CCCCCCCCCCCC(=O)NC(CCCNC(=N)N)C(=O)NCCCCCCCC` (centres unmarked) [Compound 22, N-(5-guanidino-1-(octylamino)-1-oxopentan-2-yl)dodecanamide], in data set [1], the “ability to prevent bacterial attachment” value was “have the ability to prevent bacterial attachment” and the “preventing bacterial attachment the best” value was “preventing bacterial attachment the best”.
Regarding `CCCCCCCC(=O)NC(CCCNC(=N)N)C(=O)NCCCCCC` (centres unmarked) [Compound 3, [amino({[4-(hexylcarbamoyl)-4-octanamidobutyl]amino})methylidene]azanium], in data set [1], the “prevention … in alcohol free full formulations” value is on record as “Prevent Bacterial Attachment”, the “prevention … in alcohol-free full formulations” value was “Prevent Bacterial Attachment”, the “ability to prevent bacterial attachment” value is “have the ability to prevent bacterial attachment” and the “preventing bacterial attachment the best” value was “preventing bacterial attachment the best”. In data set [2], the “log reduction in S. mutans” value is on record as “do not Result in More than a One Log Reduction in S. mutans”.
For `CCCCCCCCCCCC(=O)NC(CCCCN)C(=O)NCC` (centres unmarked) [Compound 11, N-[5-amino-1-(ethylcarbamoyl)pentyl]dodecanamide], in data set [1], the “prevention … in alcohol free full formulations” value is “Prevent Bacterial Attachment”, the “prevention … in alcohol-free full formulations” value is “Prevent Bacterial Attachment” and the “ability to prevent bacterial attachment” value is recorded as “have the ability to prevent bacterial attachment”. The “log reduction in S. mutans” value in data set [2] is on record as “do not Result in More than a One Log Reduction in S. mutans”.
Regarding `CCCCCCCCCCCC(=O)NC(COP(=O)(O)O)C(=O)NCC` (centres unmarked) [Compound 16, 2-dodecanamido-3-(ethylamino)-3-oxopropyl dihydrogen phosphate], the “ability to prevent bacterial attachment” value in data set [1] is “have the ability to prevent bacterial attachment”.
As for `CCCCCCCCCCCCCCCCCC(=O)NC(CCCNC(=N)N)C(=O)NC` (centres unmarked) [Compound 7], in data set [2], the “log reduction in S. mutans” value was “do not Result in More than a One Log Reduction in S. mutans”.
`CCCCCCCC(=O)NC(CCCNC(=N)N)C(=O)NCC` (centres unmarked) [Compound 2, [amino({[4-(ethylcarbamoyl)-4-octanamidobutyl]amino})methylidene]azanium]: in data set [1], the “prevention … in alcohol free full formulations” value is on record as “Prevent Bacterial Attachment”, the “prevention … in alcohol-free full formulations” value was “Prevent Bacterial Attachment”, the “ability to prevent bacterial attachment” value is “have the ability to prevent bacterial attachment” and the “preventing bacterial attachment the best” value is reported as “preventing bacterial attachment the best”. In addition, the “log reduction in S. mutans” value in data set [2] is reported as “do not Result in More than a One Log Reduction in S. mutans”. Moreover, in data set [3], the “structural stability via HPLC in simple solution formulations” value is reported as “significant decrease in peak area”.
